# Test results reported in paper PMC5927461, “Activation of host transient receptor potential (TRP) channels by praziquantel stereoisomers” (PLoS Neglected Tropical Diseases, 2018).
# Like-named read-outs stand apart in the source and are kept apart here.
# Assays:
# [1] = system: TRPA1; design: method as in PMID 29054683; settings: ≤100μM; cited from earlier work
# [2] = target: TRPV1 (Homo sapiens, UniProt Q8NER1); design: method as in PMID 29054683; settings: 100μM; cited from earlier work
# [3] = target: hTRPA1 (Homo sapiens, UniProt O75762); experiment: Single cell confocal Ca2+ imaging (fluo-4) in transfected HEK293 cells; type: cell-based; design: host or cells: HEK293 (ATCC CRL-1573.3), transient; settings: 100μM
# hTRPA1, sequence (O75762 whole entry, the tested form may be a part): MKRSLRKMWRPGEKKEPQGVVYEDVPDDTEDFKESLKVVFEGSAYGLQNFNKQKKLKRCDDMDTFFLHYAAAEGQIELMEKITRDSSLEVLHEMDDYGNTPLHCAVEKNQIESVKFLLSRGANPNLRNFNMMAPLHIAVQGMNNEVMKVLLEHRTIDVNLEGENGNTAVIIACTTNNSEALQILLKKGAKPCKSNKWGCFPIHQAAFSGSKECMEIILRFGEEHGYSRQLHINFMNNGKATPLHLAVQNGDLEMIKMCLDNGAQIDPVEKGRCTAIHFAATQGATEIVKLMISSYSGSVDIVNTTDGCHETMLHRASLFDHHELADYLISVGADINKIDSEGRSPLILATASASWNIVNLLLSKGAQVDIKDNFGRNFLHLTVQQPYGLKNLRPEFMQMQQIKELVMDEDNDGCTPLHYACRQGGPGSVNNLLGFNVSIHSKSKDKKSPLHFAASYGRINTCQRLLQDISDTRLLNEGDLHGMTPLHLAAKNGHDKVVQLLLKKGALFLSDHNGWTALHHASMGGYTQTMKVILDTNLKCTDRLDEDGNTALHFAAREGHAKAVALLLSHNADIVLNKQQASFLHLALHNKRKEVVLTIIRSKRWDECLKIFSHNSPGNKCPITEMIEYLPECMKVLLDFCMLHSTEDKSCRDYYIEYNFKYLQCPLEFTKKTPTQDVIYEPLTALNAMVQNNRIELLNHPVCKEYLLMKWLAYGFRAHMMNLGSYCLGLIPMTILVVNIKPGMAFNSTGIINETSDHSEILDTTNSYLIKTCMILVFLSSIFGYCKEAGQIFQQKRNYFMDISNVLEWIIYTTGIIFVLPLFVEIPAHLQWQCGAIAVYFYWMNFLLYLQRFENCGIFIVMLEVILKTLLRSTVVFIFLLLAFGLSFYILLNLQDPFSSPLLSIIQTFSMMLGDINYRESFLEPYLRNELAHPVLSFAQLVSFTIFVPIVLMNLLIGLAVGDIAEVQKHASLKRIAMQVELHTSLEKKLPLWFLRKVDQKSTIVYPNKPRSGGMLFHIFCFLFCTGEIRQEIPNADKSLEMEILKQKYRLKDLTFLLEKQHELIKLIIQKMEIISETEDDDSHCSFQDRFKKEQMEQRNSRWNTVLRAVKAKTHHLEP
# Text: (§1) Human TRPM8 cDNA was a VersaClone from R&D Systems (RDC0188). Plasmids encoding human TRPA1 and human TRPV1 cDNA were purchased from DNASU plasmid repository (HsCD00080227 and HsCD00081472, respectively). The TRP channel coding sequences were subcloned into pCS2+ to introduce a COOH-term myc tag using the InFusion HD method (Clontech), HindIII/XhoI restriction enzymes (NEB) and the following primers: TRPM8 F–TGGGGACGTCGGAGC-aagctt-[…]; TRPM8 R–AAATCGATGGGATGC-ctcgag-[…]; TRPA1 F-GGACGTCGGAGC-aagctt- atgaagcgcagcctgagg; TRPA1 R-TCGATGGGATGC-ctcgag-[…]; TRPV1 F–GGACGTCGGAGC-aagctt-[…]; TRPV1 R-TCGATGGGATGC-ctcgag-cttctccccggaagcgg (where upper case specifies vector-specific sequences, italics indicate restriction sites, and lower case indicates TRP channel specific sequences). Primers are listed in a 5’ to 3’ orientation.
# (§2) HEK293 cells (ATCC CRL-1573.3) were cultured in DMEM supplemented with 10% fetal bovine serum (FBS), penicillin (100 units/ml), streptomycin (100 μg/ml), and L-glutamine (290 μg/ml). Cells were transiently transfected (Lipofectamine LTX, Thermo Fisher) at a density of 2x10^6 cells per T-25 cell-culture flask with TRP channel cDNA. For Ca^2+ imaging assays, HEK293 cells were seeded onto 8-chambered coverglass slides (Thermo Fisher, 115411PK), at a density of 1x10^4 cells one day prior to imaging. Cells were washed twice with HBSS, and incubated with fluo-4-AM (4μM), pluronic F127 (0.4%) and probenecid (2.5mM) for 25 minutes at room temperature. Cells were then washed twice with HBSS, and left at room temperature (30 minutes) for de-esterification. Dishes were mounted on an Olympus IX81 microscope and fluorescence changes (λex = 488nM, λem = 513±15nm bandpass filter) monitored using a Yogokawa spinning disk confocal (CSU-X-M1N) and an Andor iXon Ultra 888 EMCCD camera.
# [4] = target: T1, hTRPM8 (Homo sapiens, UniProt Q7Z2W7); experiment: as above; type: cell-based; design: host or cells: HEK293 (ATCC CRL-1573.3), transient; settings: for EC50: confocal imaging, Fig 4E, read-out: EC50, Ca2+ mobilization in TRPM8 expressing cells; for cytoplasmic Ca2+ signal in TRPM8 expressing cells: menthol 300μM, ±PZQ 100μM, (R)-PZQ or (S)-PZQ 50μM
# T1 sequence (Q7Z2W7 whole entry): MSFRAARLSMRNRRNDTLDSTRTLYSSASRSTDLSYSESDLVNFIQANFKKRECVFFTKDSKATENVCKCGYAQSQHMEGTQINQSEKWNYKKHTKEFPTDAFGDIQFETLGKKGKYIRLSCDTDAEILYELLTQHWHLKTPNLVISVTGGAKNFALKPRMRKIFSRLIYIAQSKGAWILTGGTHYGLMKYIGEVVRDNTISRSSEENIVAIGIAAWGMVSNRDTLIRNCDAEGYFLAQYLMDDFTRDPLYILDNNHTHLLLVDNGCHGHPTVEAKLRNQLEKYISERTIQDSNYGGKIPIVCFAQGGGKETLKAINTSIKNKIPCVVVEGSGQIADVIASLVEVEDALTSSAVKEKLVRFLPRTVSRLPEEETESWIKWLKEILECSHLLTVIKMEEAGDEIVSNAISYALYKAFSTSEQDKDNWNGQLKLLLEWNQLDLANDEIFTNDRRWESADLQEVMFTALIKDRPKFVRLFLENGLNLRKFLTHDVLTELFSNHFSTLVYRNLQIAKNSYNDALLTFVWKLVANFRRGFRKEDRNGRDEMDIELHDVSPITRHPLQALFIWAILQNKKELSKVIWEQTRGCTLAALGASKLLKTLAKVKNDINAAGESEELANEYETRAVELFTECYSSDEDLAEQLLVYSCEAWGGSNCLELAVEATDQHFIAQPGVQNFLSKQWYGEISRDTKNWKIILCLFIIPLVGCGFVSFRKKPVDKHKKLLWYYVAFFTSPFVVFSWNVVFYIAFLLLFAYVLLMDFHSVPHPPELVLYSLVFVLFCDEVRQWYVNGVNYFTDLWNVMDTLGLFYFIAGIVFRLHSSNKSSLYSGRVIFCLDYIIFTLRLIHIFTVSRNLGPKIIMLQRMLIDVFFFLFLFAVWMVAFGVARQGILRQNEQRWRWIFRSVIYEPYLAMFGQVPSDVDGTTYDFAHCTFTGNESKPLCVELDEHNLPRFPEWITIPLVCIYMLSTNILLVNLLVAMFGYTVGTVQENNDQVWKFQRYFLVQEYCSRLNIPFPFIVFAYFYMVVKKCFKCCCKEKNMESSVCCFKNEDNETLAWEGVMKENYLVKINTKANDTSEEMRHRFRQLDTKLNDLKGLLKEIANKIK
# Text: as §1, §2
# [5] = target: T1, hTRPM8; design: host or cells: HEK293 (ATCC CRL-1573.3), transient; method as in PMID 29054683; settings: by microfluorimetry; partial agonist; cited from earlier work
# [6] = system: mouse mesenteric arteries; experiment: Wire myography, mesenteric artery strips at resting (basal) tone; settings: 100μM added at basal tone
# TRPV1, sequence (Q8NER1 whole entry): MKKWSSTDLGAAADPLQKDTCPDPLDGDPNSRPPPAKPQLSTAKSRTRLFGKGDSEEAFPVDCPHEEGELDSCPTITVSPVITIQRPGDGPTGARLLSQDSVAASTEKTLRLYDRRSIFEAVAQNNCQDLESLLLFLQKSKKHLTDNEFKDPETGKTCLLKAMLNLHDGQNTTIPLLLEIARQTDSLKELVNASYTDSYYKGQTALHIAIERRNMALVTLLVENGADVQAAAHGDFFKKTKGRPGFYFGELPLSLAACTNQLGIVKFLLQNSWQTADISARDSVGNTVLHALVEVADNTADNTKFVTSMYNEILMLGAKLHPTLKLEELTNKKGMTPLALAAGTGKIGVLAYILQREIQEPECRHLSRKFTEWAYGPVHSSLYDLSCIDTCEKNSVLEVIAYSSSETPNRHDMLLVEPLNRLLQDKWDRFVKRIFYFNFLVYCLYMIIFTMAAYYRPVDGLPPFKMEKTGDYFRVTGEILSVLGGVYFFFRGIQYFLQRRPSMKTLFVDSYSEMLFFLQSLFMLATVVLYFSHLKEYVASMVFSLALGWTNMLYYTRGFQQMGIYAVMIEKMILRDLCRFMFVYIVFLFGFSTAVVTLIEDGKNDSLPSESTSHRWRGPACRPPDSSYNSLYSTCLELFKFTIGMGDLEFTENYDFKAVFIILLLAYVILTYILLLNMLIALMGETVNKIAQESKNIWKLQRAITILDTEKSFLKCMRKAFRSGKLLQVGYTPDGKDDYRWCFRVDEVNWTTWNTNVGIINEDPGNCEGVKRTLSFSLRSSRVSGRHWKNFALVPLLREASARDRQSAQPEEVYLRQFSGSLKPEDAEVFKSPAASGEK
SMILES,activity against TRPA1 [1],activation of TRPV1 [2],Ca2+ response in hTRPA1 expressing cells [3],EC50 [4] [µM],cytoplasmic Ca2+ signal in TRPM8 expressing cells [4],EC50 [5] [µM],change of tension at resting tone [6]
"O=C(C1CCCCC1)N1CC(=O)N2CCc3ccccc3C2C1 (racemic) [±PZQ, praziquantel]",lack of activity,low potency activation,elicited Ca^2+ responses,19 ± 5,evoked cytoplasmic Ca^2+ signals,~25,marked contraction
O=C(C1CCCCC1)N1CC(=O)N2CCc3ccccc3[C@H]2C1 [(S)-PZQ],–,–,activation of hTRPA1,19.2 ± 5.3,evoked cytoplasmic Ca^2+ signals,–,–
